The values that follow come from a melting point compilation (Tetko et al.; mined from patent text by program, amines drawn as free bases though some values may be those of a salt).

For the compound `CC(C)(C)CCCOC1CCC2C3C(=O)C=C4CC(O[Si](C)(C)C(C)(C)C)CCC4(C)C3CCC12C` (stereo unspecified), the melting point (as a rule, the temperature, or range, at which the solid turns liquid) is 155 to 156 °C.

On to `O=C(O)C(Cl)C(=O)CCl` (stereo unspecified), for which the melting point lay within 53 to 54 °C.

`O=C(O)c1ccc(F)c(Oc2ccccc2)c1` gave a melting point of 226 to 227 °C.

Compound `CCN(CC)c1ccc(/C=C/c2c(F)cccc2F)cc1` showed a melting point of 70 to 71 °C.

The compound `CCOC(=O)Cn1c2c(c3c(Cl)ccc(Cl)c31)CCN(C(=O)OC(C)(C)C)CC2` returned a melting point of 118 to 120 °C.

As to `CCOC(=O)CN(NC(=O)OC(C)(C)C)C(=O)OCc1ccccc1`, the melting point was in the range of 117 to 119 °C.

`Cc1ccc(Cc2cnc(CCCOc3cc(CN4CCCCC4)ccn3)[nH]c2=O)cn1`: the melting point lay in the range of 99 to 100 °C.

On to `Cc1c(F)c([N+](=O)[O-])cc2c(=O)c(C(=O)O)cn(-c3cc(N)c(F)cc3F)c12`, for which the melting point was 250 to 252 °C.

Compound `O=C(O)c1ccccc1OCCN1CCC(c2cn(CC3CC3)c3ccccc23)CC1` registered a melting point of 145 to 147 °C.

Consider `CC(=O)c1ccc2c(c1)C1(C)C3(C)CCC(C3)C1(C)O2` (stereo unspecified), for which the melting point was in the range of 140 to 142 °C.

Turning to `CCCCCc1ncc(C(=O)OCC)c(NCc2ccc(-c3ccccc3-c3nnnn3C(c3ccccc3)(c3ccccc3)c3ccccc3)cc2)n1`, the melting point was 107 to 108 °C.

`CC1CCc2c(F)c(F)cc3c(=O)[nH]c(=O)n1c23` (stereo unspecified) came in with a melting point of 212 to 214 °C.

Compound `OC(CCl)CSc1ncc(Cl)cn1` (stereo unspecified) came in with a melting point of 99 °C.

In the case of `CN1CCN(c2ccc(N/C=C3\C(=O)NC(=O)c4ccc(C(=O)N(C)C)cc43)cc2)CC1`, the melting point was greater than 300 °C.

`O=C(NCCCCCCO)Oc1ccc(Oc2ccccc2)cc1` gave a melting point of 72 to 75 °C.

`CCOC(=O)c1cn(C(=O)c2ccccc2)c2sc(-c3ccc(OC)cc3)c(CBr)c2c1=O` had a melting point of 124 to 126 °C.

For `CCCCCCCCCOP(=O)(CNC(=O)Nc1c(C(C)C)cccc1C(C)C)OCC` (stereo unspecified), the melting point lay within 66 to 70 °C.

`CC(C)C(=O)Nc1nsnc1-c1c(Cl)cccc1Cl` came in with a melting point of 112 to 117 °C.

In turn, `Cc1cc2n(n1)-c1ccc(Cl)cc1C(c1ccccc1)=NC2` had a melting point of 105 to 107 °C.

`CN1CCN(c2cccc3c2CC(C(=O)Nc2ccc(N4CCOCC4)cc2)C3)CC1` (stereo unspecified): the melting point is 248 to 249 °C.

`CCOC(=O)c1nnc2ccc(NCCCN3CCC(OC(c4ccccc4)c4ccccc4)CC3)nn12` showed a melting point of 129 to 133 °C.

Turning to `COc1cccc2c1CC(C#N)CC2` (stereo unspecified), the melting point was 66 to 68 °C.

Take `COc1cccc2c1nc(C(F)F)n2-c1nc(Nc2ccc(F)nc2)nc(N2CCOCC2)n1`: the melting point fell in the range of 261 to 263 °C.

Take `CC(=O)N1CCN(CCc2ccc(-c3cccc(N)n3)cc2)CC1`: the melting point fell in the range of 201 to 203 °C.

With `CCOC(=O)c1cnc2cc(NC(C)=O)c(F)cc2c1O`, the melting point was 320 °C.

`COc1cc(NC(=O)Nc2ccc3c(c2)CCN(C(=O)Nc2ccc(OCCO)cc2Cl)C3)cc(OC)c1` registered a melting point of 105 to 110 °C.

In the case of `CC(NC(=O)C(O)c1cc(F)cc(F)c1)C(=O)Nc1ccc2c(c1)NC(=O)Cc1cccn1-2` (stereo unspecified), the melting point was 239 to 240 °C.

As to `Cc1cn(-c2nc(Nc3cccc(NS(C)(=O)=O)c3)nc3[nH]cnc23)cn1`, the melting point fell in the range of 298 to 301 °C.

`O=C(O)c1ccc(C#Cc2cc(C#Cc3ccc(C(=O)O)cc3)cc(C#Cc3ccc(C(=O)O)cc3)c2)cc1` showed a melting point of 218 °C.

With `CC(C)(C)c1cc(-c2nn(CCC(N)=O)c3ncccc23)cc(C(C)(C)C)c1O`, the melting point fell in the range of 154 to 157 °C.

Consider `COc1cc2ccc(C(=O)CCC(=O)O)cc2cc1OC`, for which the melting point lay in the range of 215 to 229 °C.

On to `O=C1CNC(=O)N1CCNCc1ccc(CN2CCCCC2)o1`, for which the melting point lay within 133 to 136 °C.

`COc1ccc2c(=O)c(C=O)coc2c1` came in with a melting point of 188 to 190 °C.

As for `CC(C)C(=O)NC1CCc2c(c3cc(Br)ccc3n2Cc2cccc(F)c2)C1` (stereo unspecified), the melting point lay within 177 to 179 °C.

`N#CC(C(=O)c1nn(-c2ccccc2)c2c1CSc1ccccc1-2)C(=S)Nc1ccccc1` (stereo unspecified): the melting point lay within 167 to 170 °C.

In the case of `COc1cc2c3c(n(CCCNS(=O)(=O)c4ccccc4)c(=O)c2cc1OC)-c1ccccc1C3=O`, the melting point lay within 249 to 250 °C.

Compound `COc1ccc2sc(C(=O)O)c(OCc3ccccc3)c2c1` registered a melting point of 150 °C.

`Cn1nnc(NC(=O)C2c3ccccc3Oc3ccccc32)n1`: the melting point turned out to be 247 °C.

Regarding `Cc1cc(-c2nc3ccc(CN4CCOCC4)cc3c(=O)[nH]2)ccn1`, the melting point lay in the range of 267 to 268 °C.

With `CCN(C(=O)C1CC1)c1cn(-c2cccnc2)nc1Cl`, the melting point lay within 111 to 119 °C.

Regarding `COC(=O)CCC/C(C)=C/c1cccc2c1NCCNC2=O`, the melting point lay in the range of 175 to 176 °C.

In the case of `C[C@@H](c1ccc(-c2cc(=O)n(C)cc2F)cc1)N1CC[C@](CC(C)(C)O)(c2ccccc2)OC1=O`, the melting point was 183 to 184 °C.

In turn, `NCCc1cccc(N2C(=O)N(c3ccc(C(F)(F)F)cc3Cl)Cc3cnc(Nc4ccccc4)nc32)c1` gave a melting point of 102 °C.

As for `O=c1cc(-c2ccc(O)cc2)oc2c([N+](=O)[O-])cccc12`, the melting point was in the range of 299 to 301 °C.

The compound `BrCc1ccc(-c2ccc(CBr)cc2)cc1` displayed a melting point of 166 to 168 °C.

`CC(CCC(=O)C(C)(C)OO)C1CCC2C3CC=C4CC(O)CCC4(C)C3CCC12C` (stereo unspecified) came in with a melting point of 146 to 147 °C.

Turning to `COc1cc(CNC(=O)c2ccc3n2Cc2ccccc2N(C(=O)c2ccc(-c4ccccc4C)c(C)c2)C3)cc(OC)c1`, the melting point was in the range of 183 to 184 °C.

The compound `COC(=O)Cc1ccc(OCCCOc2cc3c(cc2O)CCO3)cc1` showed a melting point of 108 to 110 °C.

`CC(=O)Oc1ccc2c3c1OC1C(OS(=O)(=O)C(F)(F)F)CCC4(O)C(C2)N(C)CCC314` (stereo unspecified) showed a melting point of 125 to 126 °C.

Turning to `CN(c1cccc2cc(C3=NCC(C(N)=O)S3)[nH]c12)S(=O)(=O)c1cccs1` (stereo unspecified), the melting point was 230 to 232 °C.

Regarding `CN(C(=O)CCCCC1SCC2NC(=O)NC21)c1ccc(/C=C/c2c(F)cccc2F)cc1` (stereo unspecified), the melting point lay within 91 to 93 °C.

Compound `[O-][N+]1=C(c2ccccc2F)c2cc(Cl)ccc2NC(C(=NO)N2CCOCC2)C1` (stereo unspecified) showed a melting point of 184 to 186 °C.

`ClCc1coc(-c2ccc(OCc3ccccc3)cc2)n1`: the melting point fell in the range of 119 to 120 °C.

The compound `O=C(Nc1ccc(Br)cc1CBr)C(F)(F)F` yielded a melting point of 133 to 135 °C.

`Cc1c(-c2ccc(O)cc2)n(Cc2ccc(C#CCN3CCCCC3)cc2)c2ccc(O)cc12` came in with a melting point of 118 to 123 °C.

In turn, `COc1cccc(C(O)CN(C)Cc2sc3c(=O)c(C(=O)NCc4ccc(Cl)cc4)cn(C)c3c2COCC[Si](C)(C)C)c1` (stereo unspecified) registered a melting point of 150 to 152 °C.

With `CNc1nc(-c2cccc(-c3cncc(S(C)=O)c3)c2)c2cc(OC)c(OC)cc2n1` (stereo unspecified), the melting point was 208 to 210 °C.

For `CCOC1=C(N(C(C)=O)C(C)C)C(=O)c2cnn(C)c2C1=O`, the melting point fell in the range of 154 to 155 °C.

`Cc1cnc(N)c(S(N)(=O)=O)c1` registered a melting point of 187 to 189 °C.

For the compound `COc1cccc2c1CC(NC(C)=O)CC2` (stereo unspecified), the melting point is 156 to 157 °C.

`NC(=O)N1Cc2ccccc2-c2ccccc2C1` registered a melting point of 212 to 214 °C.

For `Cc1ccc(S(=O)(=O)OCC(C)(O)C(=O)c2ccccc2)cc1` (stereo unspecified), the melting point is 88 to 90 °C.

In turn, `Cc1c(C2CCC(c3ccccc3)(N(C)C)CC2)[nH]c2ccc(F)cc12` (stereo unspecified) yielded a melting point of 199 to 205 °C.

In the case of `CN1CN(C)c2nc3n(Cc4ccccc4)c(=O)cc(O)n3c2C1=O`, the melting point lay in the range of 176 to 182 °C.

`Cc1nc2c(cc1C(=O)O)CCCC2` yielded a melting point of 196 to 197 °C.

Compound `Cc1cccc(NC(=O)CN2CCN(c3ccccc3C#N)CC2)c1` yielded a melting point of 168 to 170 °C.

`C#CCN(Cc1cc2c(=O)n(C)c(CN3CCCCC3)nc2cc1Cl)c1ccc(C(=O)OC(C)(C)C)cc1` had a melting point of 162 to 163 °C.

Take `COc1cc2c(cc1OC)CN(CCc1ccc(NC(=O)c3cccc4c(=O)c5cccc(F)c5[nH]c34)cc1)CC2`: the melting point turned out to be 212 °C.

`CCC(C#N)=C1CCN(c2ccc(N3C[C@H](CNC(=O)C(Cl)(Cl)Cl)OC3=O)cc2F)CC1`: the melting point lay in the range of 150 to 152 °C.

`Cc1cc2cc(C#N)c(Cl)nc2cc1C` displayed a melting point of 189 to 190 °C.

In the case of `O=C1CC2(CN1)CC(=O)c1cc(Cl)ccc12` (stereo unspecified), the melting point lay within 220 to 222 °C.

Take `CC(=O)OC1CSC(Oc2cc(-c3cccnc3)cnc2F)C(OC(C)=O)C1OC(C)=O` (stereo unspecified): the melting point fell in the range of 67 to 68 °C.

The compound `O=c1oc2ccc(-c3ccc(F)cc3F)cc2c(=O)n1-c1cc(F)ccc1F` gave a melting point of 144 to 145 °C.

For the compound `CCN1CCc2ccc(Nc3ncc(Cl)c(NC4CCCCNC4=O)n3)cc2CC1` (stereo unspecified), the melting point lay in the range of 232 to 234 °C.

Compound `CON1CCC2(CC1)C(OCc1ccccc1)=C(c1c(C)cc(C)cc1C)C(=O)N2C` showed a melting point of 139 to 141 °C.

In turn, `C/C(=C(\C#N)C(=S)/N=C/N(C)C)N1CCCN(c2ccc(C)c(F)c2)CC1` displayed a melting point of 254 to 256 °C.

For `Cc1nnc(-c2ccc3occ(-c4ccc(S(C)(=O)=O)c(Cl)c4)c3c2)o1`, the melting point was 204 to 205 °C.

The compound `COc1cc(C(C)=O)ccc1OCCCCN1CCN(c2n[nH]c3cc(Cl)ccc23)CC1` had a melting point of 189 to 191 °C.

Consider `CC1(C)Oc2ccc(C#N)cc2C(n2nc(O)ccc2=O)C1O` (stereo unspecified), for which the melting point lay in the range of 251 to 252 °C.

As to `CC(C)Cc1c2c(nn1C)c(N)nc1ccccc12`, the melting point was in the range of 213 to 214 °C.

`CNS(=O)(=O)c1ccc(C=C2C(C)=C(CC(=O)OC)c3cc(OC)ccc32)cc1` showed a melting point of 167 to 169 °C.

For `CN1CCN(c2ncnc3nc(-c4ccncc4)[nH]c23)CC1`, the melting point was in the range of 333 to 335 °C.

The compound `CCn1c(=O)c2[nH]c(/C=C/c3cccc([N+](=O)[O-])c3)nc2n(CC)c1=O` returned a melting point greater than 270 °C.

`CCc1ccc2c(c1)CC(NC(=O)C(F)(F)F)C2` (stereo unspecified) returned a melting point of 112 to 114 °C.

Take `CNC(=O)N1CCC(Oc2ccc([N+](=O)[O-])cc2)(c2ccccc2)CC1`: the melting point was in the range of 110 to 115 °C.

The compound `Cc1nnc(-c2ccc3occ(-c4ccccc4)c3c2)o1` came in with a melting point of 117 to 118 °C.
